Converted amounts (≈) assume the structure as drawn. Read-outs that look alike come from different tables or passages of the source.
Experiments:
[1] = tested on: Plasmodium falciparum, chloroquine-sensitive strain NF54; assay: activity against P. falciparum in vitro, strain NF54; type: cell-based; conditions: Plasmodium falciparum; chloroquine-sensitive strain NF54; 48 h-72 h; read-out: IC50 (50% growth inhibition)
Experimental: (§1) Test method for the determination of the activity against P. falciparum in vitro
(§2) The preparations of the present invention were tested on intraerythrocytary stages of P. falciparum from asynchronous cultures according to the method of Desjardin et al. (Desjardins, R. E. et al: Quantitative assessment of antimalarial activity in vitro by a semiautomated microdilution technique. Antimicrob. Agents Chemother. 16, 710-718, (1979)).
(§3) The culture medium consisted of RPMI 1640 with the addition of 25 mM HEPES, 25 mM NaHCO3, […] neomycin and 10% human serum (A^+). Human-A^+ erythrocytes were used as the P. falciparum host cells. The parasites were maintained at 37° C. in an atmosphere of 3% O2, 4% CO2, 93% N2 and at 95% relative humidity.
(§4) In order to determine the activity, the preparations were dissolved in DMSO, pre-diluted in the culture medium to a suitable starting concentration and subsequently titrated-out into microtitre plates in the 2nd stage over 6-7 steps. After the addition of the parasite culture (0.7% parasitemia in 2.5% erythrocyte suspension), the test plates were incubated under the conditions given above for 48 h-72 h. The parasite growth in the different preparation concentrations was determined using [G-^3 H]-hypoxanthin incorporation compared to untreated control cultures on the same test plates. The 50% growth inhibition (IC50) was calculated according to logit regression analysis from the resulting dosage-activity curve.
(§5) The preparations were tested on at least one chloroquine-resistant and one chloroquine-sensitive P. falciparum strain. Additional sensitive and resistant strains were also included for further characterization.
(§6) Table 1 below contains the IC50 values measured in vitro for the growth inhibition of chloroquine-sensitive and chloroquine-resistant strains of the human pathogenic Plasmodium falciparum.

[2] = tested on: Plasmodium falciparum, chloroquine-sensitive strain FCH5C2; assay: activity against P. falciparum in vitro, strain FCH5C2; type: cell-based; conditions: chloroquine-sensitive strain FCH5C2, 48 h-72 h, read-out: IC50 (50% growth inhibition)
Experimental: as §1, §2, §3, §4, §5, §6

[3] = tested on: Plasmodium falciparum, chloroquine-sensitive strain HB3; assay: activity against P. falciparum in vitro, strain HB3; type: cell-based; conditions: chloroquine-sensitive strain HB3, 48 h-72 h, read-out: IC50 (50% growth inhibition)
Experimental: as §1, §2, §3, §4, §5, §6

[4] = tested on: Plasmodium falciparum, chloroquine-sensitive strain RFMEF3; assay: activity against P. falciparum in vitro, strain RFMEF3; type: cell-based; conditions: chloroquine-sensitive strain RFMEF3, 48 h-72 h, read-out: IC50 (50% growth inhibition)
Experimental: as §1, §2, §3, §4, §5, §6

[5] = tested on: Plasmodium falciparum, chloroquine-sensitive strain Ro7 3; assay: activity against P. falciparum in vitro, strain Ro7 3; type: cell-based; conditions: chloroquine-sensitive strain Ro7 3, 48 h-72 h, read-out: IC50 (50% growth inhibition)
Experimental: as §1, §2, §3, §4, §5, §6

[6] = tested on: Plasmodium falciparum, chloroquine-resistant strain RFCR3; assay: activity against P. falciparum in vitro, strain RFCR3; type: cell-based; conditions: chloroquine-resistant strain RFCR3, 48 h-72 h, read-out: IC50 (50% growth inhibition)
Experimental: as §1, §2, §3, §4, §5, §6

[7] = tested on: Plasmodium falciparum, chloroquine-resistant strain ItG2 F6; assay: activity against P. falciparum in vitro, strain ItG2 F6; type: cell-based; conditions: chloroquine-resistant strain ItG2 F6, 48 h-72 h, read-out: IC50 (50% growth inhibition)
Experimental: as §1, §2, §3, §4, §5, §6

[8] = tested on: Plasmodium falciparum, chloroquine-resistant strain Indo; assay: activity against P. falciparum in vitro, strain Indo; type: cell-based; conditions: chloroquine-resistant strain Indo, 48 h-72 h, read-out: IC50 (50% growth inhibition)
Experimental: as §1, §2, §3, §4, §5, §6

[9] = tested on: Plasmodium falciparum, chloroquine-resistant strain K1; assay: activity against P. falciparum in vitro, strain K1; type: cell-based; conditions: Plasmodium falciparum; chloroquine-resistant strain K1; 48 h-72 h; read-out: IC50 (50% growth inhibition)
Experimental: as §1, §2, §3, §4, §5, §6

[10] = tested on: Plasmodium falciparum, chloroquine-resistant strain W2; assay: activity against P. falciparum in vitro, strain W2; type: cell-based; conditions: chloroquine-resistant strain W2, 48 h-72 h, read-out: IC50 (50% growth inhibition)
Experimental: as §1, §2, §3, §4, §5, §6

[11] = tested on: Plasmodium falciparum, chloroquine-resistant strain 7G8; assay: activity against P. falciparum in vitro, strain 7G8; type: cell-based; conditions: chloroquine-resistant strain 7G8, 48 h-72 h, read-out: IC50 (50% growth inhibition)
Experimental: as §1, §2, §3, §4, §5, §6

[12] = tested on: Plasmodium falciparum, chloroquine-resistant strain W2 Mef; assay: activity against P. falciparum in vitro, strain W2 Mef; type: cell-based; conditions: 48 h-72 h, read-out: IC50 (50% growth inhibition)
Experimental: as §1, §2, §3, §4, §5, §6

[13] = tested on: Plasmodium berghei (strain ANKA); assay: activity against Plasmodium berghei in vivo (infected mice); conditions: mice; for inhibition in vivo at 10 mg/kg: 48 hours after treatment (D+3)
Experimental: Test method for the determination of the activity against Plasmodium berghei in vivo
The preparations according to the present invention were tested on mice infected with malaria pathogens (Plasmodium berghei). Male albino mice (IBM:MORO(SPF), FUELLINSDORF) weighing about 25 g were used as the test animals. They were kept in climatized rooms at 21°-22° C. in groups of 5 animals per cage. They received ad libitum a diet feed with a low PABA content ("NAFAG FUTTER" No. 9009 PAB-45, PABA content 45 mg/kg) and drinking water. On the first day of the test (D0) the test animals were infected with Plasmodium berghei (strain ANKA). For this there was used heparinized blood of a donor mouse with about 30% parasitemia, which was diluted with physiological saline such that it contains 10^8 parasitized erythrocytes per ml. 0.2 ml of this suspension was injected intravenously (i.v.) into the mice to be treated and into the control mice. In untreated control animals the parasitemia normally reaches 30-40% on the third day after the infection (D+3) and the test animals die between days +5 and +7.
The substances to be tested were dissolved or suspended in distilled water or in a mixture of 7% Tween 80, 3% alcohol (96%) and water. Usually, 0.25 ml of this solution or suspension was administered once subcutaneously and perorally to groups of 5 test animals. Treatment was effected 24 hours after the infection. 10 control animals were treated in the same manner with solvent or suspension medium per test.
All substances were tested in a first test in a single dosage of 10 mg/kg. Only those substances which in this test (10 mg/kg) had shown a parasitaemia reduction of 90% were used for the titration.
48 hours after the treatment (D+3), blood smears were prepared from all animals using blood from tail veins and were stained with Giemsa. The average erythrocyte infection rate (parasitemia in %) in the control groups as well as in the groups which had been treated with the test compounds was determined by counting under a microscope. The difference in the average values of the infection rates of control group (100%) and treated groups was calculated and expressed as a percentage reduction (GI %). The ED50 or ED90 was determined mathematically by means of the JMP programme (nonlinear fit). The ED50 (ED90) in mg/kg is that dose which after single administration reduces the average erythrocyte infection rate by 50% (90%) in comparison to the control group.
Table 2 below contains data with respect to the activity measured against Plasmodium berghei in mice: GI % is the percentage reduction in the parasitemia after a single dose of 10 mg/kg of the test substance administered perorally (po) or subcutaneously (sc); ED50 and ED90 are the effective doses of the test substance administered perorally or subcutaneously.

Compound | IC50 [1] [ng/mL] | IC50 [2] [ng/mL] | IC50 [3] [ng/mL] | IC50 [4] [ng/mL] | IC50 [5] [ng/mL] | IC50 [6] [ng/mL] | IC50 [7] [ng/mL] | IC50 [8] [ng/mL] | IC50 [9] [ng/mL] | IC50 [10] [ng/mL] | IC50 [11] [ng/mL] | IC50 [12] [ng/mL] | ED50 ([13]; single administration po, dose reducing average erythrocyte infection rate by 50%, read-out: ED50 (po)) [mg/kg] | inhibition in vivo at 10 mg/kg ([13]; single dose 10 mg/kg po, read-out: GI % at 10 mg/kg (po): percentage reduction in the parasitemia) [%] | inhibition in vivo at 10 mg/kg ([13]; single dose 10 mg/kg sc, read-out: GI % at 10 mg/kg (sc): percentage reduction in the parasitemia) [%]
CC(CN1CCCC1)Nc1ccnc2cc(Cl)ccc12 (racemic) [Example 3, (RS)-(7-Chloro-quinolin-4-yl)-(1-methyl-2-pyrrolidin-1-yl-ethyl)-amine] | 7 (≈ 0.0242 µM) | 7 (≈ 0.0242 µM) | 5 (≈ 0.0173 µM) | 7 (≈ 0.0242 µM) | 4 (≈ 0.0138 µM) | 8 (≈ 0.0276 µM) | 5 (≈ 0.0173 µM) | 6 (≈ 0.0207 µM) | 12 (≈ 0.0414 µM) | 7 (≈ 0.0242 µM) | 7 (≈ 0.0242 µM) | 11 (≈ 0.038 µM) |  |  | 
CC(CN1CCCCC1)Nc1ccnc2cc(Cl)ccc12 (racemic) [Example 4, (RS)-(7-Chloro-quinolin-4-yl)-(1-methyl-2-piperidin-1-yl-ethyl)-amine] | 7 (≈ 0.023 µM) | 8 (≈ 0.0263 µM) | 8 (≈ 0.0263 µM) | 7 (≈ 0.023 µM) | 4 (≈ 0.0132 µM) | 9 (≈ 0.0296 µM) | 5 (≈ 0.0165 µM) | 8 (≈ 0.0263 µM) | 15 (≈ 0.0494 µM) | 15 (≈ 0.0494 µM) | 7 (≈ 0.023 µM) | 14 (≈ 0.0461 µM) |  |  | 
CC1CCCN(CCNc2ccnc3cc(Cl)ccc23)C1 (racemic) [Example 23, (RS)-(7-Chloro-quinolin-4-yl)-[2-(3-methyl-piperidin-1-yl)-ethyl]-amine] | 6 (≈ 0.0197 µM) | 6 (≈ 0.0197 µM) | 7 (≈ 0.023 µM) | 7 (≈ 0.023 µM) | 4 (≈ 0.0132 µM) | 10 (≈ 0.0329 µM) | 6 (≈ 0.0197 µM) | 8 (≈ 0.0263 µM) | 15 (≈ 0.0494 µM) | 15 (≈ 0.0494 µM) | 8 (≈ 0.0263 µM) | 13 (≈ 0.0428 µM) |  |  | 
CC1CCCCN1CCNc1ccnc2cc(Cl)ccc12 (racemic) [Example 26, (RS)-(7-Chloro-quinolin-4-yl)-[2-(2-methyl-piperidin-1-yl) -ethyl]-amine] | 7 (≈ 0.023 µM) | 8 (≈ 0.0263 µM) | 8 (≈ 0.0263 µM) | 9 (≈ 0.0296 µM) | 5 (≈ 0.0165 µM) | 8 (≈ 0.0263 µM) | 6 (≈ 0.0197 µM) | 9 (≈ 0.0296 µM) | 15 (≈ 0.0494 µM) | 15 (≈ 0.0494 µM) | 8 (≈ 0.0263 µM) | 13 (≈ 0.0428 µM) |  |  | 
CCC1CCCCN1CCNc1ccnc2cc(Cl)ccc12 (racemic) [Example 27, (RS)-(7-Chloro-quinolin-4-yl)-[2-(2-ethyl-piperidin-1-yl)-ethyl]amine] | 8 (≈ 0.0252 µM) | 10 (≈ 0.0315 µM) | 9 (≈ 0.0283 µM) | 7 (≈ 0.022 µM) | 3 (≈ 0.00944 µM) | 15 (≈ 0.0472 µM) | 7 (≈ 0.022 µM) | 9 (≈ 0.0283 µM) | 18 (≈ 0.0566 µM) | 19 (≈ 0.0598 µM) | 7 (≈ 0.022 µM) | 14 (≈ 0.044 µM) |  |  | 
Clc1ccc2c(NCCN3CCCCC3)ccnc2c1 [Example 8, (7-Chloro-quinolin-4-yl)-(2-piperidin-1-yl-ethyl)-amine] | 5 (≈ 0.0173 µM) | 9 (≈ 0.0311 µM) | 7 (≈ 0.0242 µM) | 9 (≈ 0.0311 µM) | 4 (≈ 0.0138 µM) | 10 (≈ 0.0345 µM) | 4 (≈ 0.0138 µM) | 5 (≈ 0.0173 µM) | 11 (≈ 0.038 µM) | 11 (≈ 0.038 µM) | 7 (≈ 0.0242 µM) | 9 (≈ 0.0311 µM) |  |  | 
Clc1ccc2c(NCCCN3CCCC3)ccnc2c1 [Example 17, (7-Chloro-quinolin-4-yl)-(3-pyrrolidin-1-yl-propyl)-amine] | 3 (≈ 0.0104 µM) | 4 (≈ 0.0138 µM) | 6 (≈ 0.0207 µM) | 8 (≈ 0.0276 µM) | 6 (≈ 0.0207 µM) | 11 (≈ 0.038 µM) | 7 (≈ 0.0242 µM) | 7 (≈ 0.0242 µM) | 15 (≈ 0.0518 µM) | 14 (≈ 0.0483 µM) | 14 (≈ 0.0483 µM) |  | 4.6 | 95 | 99
CCN(CC)CCNc1ccnc2cc(C(F)(F)F)ccc12 [Example 21, N1,N1 -Diethyl-N2-(7-trifluoromethyl-quinolin-4-yl)-ethane-1,2-diamine] | 21 (≈ 0.0674 µM) | 35 (≈ 0.112 µM) | 33 (≈ 0.106 µM) | 35 (≈ 0.112 µM) | 28 (≈ 0.0899 µM) | 54 (≈ 0.173 µM) | 28 (≈ 0.0899 µM) | 31 (≈ 0.0996 µM) | 34 (≈ 0.109 µM) | 57 (≈ 0.183 µM) | 49 (≈ 0.157 µM) |  |  |  | 
